Experimental data from article PMC10303271, “Synthesis and Receptor Binding Studies of α5 GABAAR Selective Novel Imidazodiazepines Targeted for Psychiatric and Cognitive Disorders” (Molecules, 2023).
Read-outs that look alike come from different tables or passages of the source.

Assays:
[1] = molecular target: kappa opioid receptors (KOR) (Homo sapiens, UniProt P41145); test: PDSP radioligand binding at KOR; details: for inhibition at 10 µM: 1.5 h
Excerpt: Opioid receptors are a family of inhibitory G-coupled protein receptors where opioids act as the ligand. The kappa opioid receptors (KOR), µ and δ opioid receptors (MOR and DOR), and nociception opioid receptor (NOP) fall under the family of opioids receptors. It has been reported that oxadiazole imidazodiazepines can mediate analgesic and anti-inflammatory properties mediated also by the κ opioid receptor (KOR). The binding at KOR is usually silent. The affinities of the test compounds for KOR, DOR, and MOR were determined using radioligand binding assays at a screening concentration of 10,000 nM in collaboration with the National Institute of Mental Health’s Psychoactive Drug Screening Program (PDSP), as mentioned before. Concentration-dependent experiments were conducted to determine Ki values for the compounds that exceeded more than 50% radioligand displacement in primary binding assays.
(§1) The NIMH PDSP assay protocol book [https://kidbdev.med.unc.edu/databases/PDSP%20Protocols%20II%202013-03-28.pdf accessed on 23 April 2023]. describes the protocols for primary and secondary radio-ligand binding assays. These assays were carried out in a final volume of 125 µL per well in the appropriate binding buffer.
(§2) The binding of a ligand to a receptor, ion channel, or transporter was determined in the […] of 10 µM of the appropriate reference compound. […] Plates were incubated in the dark for 90 min at rt, and the reactions were stopped by vacuum filtration onto 0.3% polyethyleneimine (PEI) soaked 96-well filter mats using a 96-well Filtermateharvester. This was followed by three washes with cold PBS buffer. Radioactivity was then counted on a Microbeta counter. Nonlinear regression was used to analyze the data with N = 6 replicates.

5-HT2C = molecular target: T1, 5-HT2C (Homo sapiens, UniProt P28335); test: PDSP primary binding 5-HT2C; details: 1.5 h; primary binding, 10,000 nM; last figure of the line = mean of the 4 before it; read-out: 5-HT2C, PDSP raw data, mean
T1 construct: purchased NIMH Psychoactive Drug Screening Program (PDSP)
T1 sequence (P28335 33-458): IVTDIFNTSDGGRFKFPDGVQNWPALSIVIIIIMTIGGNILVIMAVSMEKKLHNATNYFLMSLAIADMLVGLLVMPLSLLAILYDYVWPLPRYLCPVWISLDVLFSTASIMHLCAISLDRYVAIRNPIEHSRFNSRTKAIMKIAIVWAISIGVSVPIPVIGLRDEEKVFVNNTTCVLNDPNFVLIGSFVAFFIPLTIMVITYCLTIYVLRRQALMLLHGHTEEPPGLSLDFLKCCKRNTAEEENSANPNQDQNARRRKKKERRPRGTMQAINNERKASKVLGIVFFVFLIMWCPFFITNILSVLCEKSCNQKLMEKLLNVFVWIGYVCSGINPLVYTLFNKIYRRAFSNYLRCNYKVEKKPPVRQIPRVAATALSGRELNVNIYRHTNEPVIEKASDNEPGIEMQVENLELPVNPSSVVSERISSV
Method: (§3) To determine if any off-target receptor-binding effects are present, all the novel ligands were sent to the National Institute of Mental Health (NIMH), Psychoactive Drug Screening Program (PDSP). The ligands were screened over a panel of 47 receptors, ion channels, and transporters to determine any other possible interactions with […]. The hERG-binding was also determined. […] No binding of the test compounds to calcium channels was observed. […] It is necessary to screen the compounds for hERG-binding during the early process of drug discovery. The unintentional binding of many drugs to hERG can cause blockade of hERG K+ channels in the heart, which can cause many side effects including cardiac arrhythmias and sudden death. […] All of the α5 imidazodiazepines were tested for hERG-binding.
as §1, §2

5-HT6 = molecular target: T2, 5-HT6 (Homo sapiens, UniProt P50406); test: PDSP primary binding 5-HT6; details: 1.5 h; primary binding, 10,000 nM; last figure of the line = mean of the 4 before it; read-out: 5-HT6, PDSP raw data, mean
T2 construct: purchased NIMH Psychoactive Drug Screening Program (PDSP)
Method: as §3, §1, §2

Beta1 = molecular target: T3, Beta1 (Homo sapiens, UniProt P08588); test: PDSP primary binding Beta1; details: 1.5 h; primary binding, 10,000 nM; last figure of the line = mean of the 4 before it; read-out: Beta1, PDSP raw data, mean
T3 construct: purchased NIMH Psychoactive Drug Screening Program (PDSP)
Method: as §3, §1, §2

D5 = molecular target: T4, D5 (Homo sapiens, UniProt P21918); test: PDSP primary binding D5; details: 1.5 h; primary binding, 10,000 nM; last figure of the line = mean of the 4 before it; read-out: D5, PDSP raw data, mean
T4 construct: purchased NIMH Psychoactive Drug Screening Program (PDSP)
Method: as §3, §1, §2

H1 = molecular target: T5, H1 (Homo sapiens, UniProt P35367); test: PDSP primary binding H1; details: primary binding, 10,000 nM; last figure of the line = mean of the 4 before it; read-out: H1, PDSP raw data, mean
T5 construct: purchased NIMH Psychoactive Drug Screening Program (PDSP)
Method: as §3, §1, §2

M2 = molecular target: T6, M2 (Homo sapiens, UniProt P08172); test: PDSP primary binding M2; details: primary binding, 10,000 nM; last figure of the line = mean of the 4 before it; read-out: M2, PDSP raw data, mean
T6 construct: purchased NIMH Psychoactive Drug Screening Program (PDSP)
T6 sequence (P08172 1-466): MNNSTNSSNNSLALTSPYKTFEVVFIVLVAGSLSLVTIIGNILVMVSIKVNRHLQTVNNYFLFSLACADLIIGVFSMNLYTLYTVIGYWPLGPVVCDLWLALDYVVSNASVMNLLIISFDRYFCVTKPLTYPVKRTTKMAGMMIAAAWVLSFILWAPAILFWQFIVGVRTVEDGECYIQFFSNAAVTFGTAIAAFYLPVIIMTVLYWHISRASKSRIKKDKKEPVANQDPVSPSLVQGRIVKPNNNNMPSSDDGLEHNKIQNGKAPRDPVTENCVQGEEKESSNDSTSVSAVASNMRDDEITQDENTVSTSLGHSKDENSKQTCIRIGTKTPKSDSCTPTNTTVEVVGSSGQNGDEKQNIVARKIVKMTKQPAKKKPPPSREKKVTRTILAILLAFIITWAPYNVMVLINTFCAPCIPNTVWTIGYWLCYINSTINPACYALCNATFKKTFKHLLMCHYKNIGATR
Method: as §3, §1, §2

AMPA = test: PDSP primary binding AMPA; details: primary binding, 10,000 nM; last figure of the line = mean of the 4 before it
Method: as §3, §1, §2

Kainate (Rat Brain) = test: PDSP primary binding Kainate (Rat Brain); details: primary binding, 10,000 nM; last figure of the line = mean of the 4 before it
Method: as §3, §1, §2

Alpha3Beta2 = molecular target: T7, Alpha3Beta2 (Rattus norvegicus, UniProt P04757+P12390); test: PDSP primary binding Alpha3Beta2; details: primary binding, 10,000 nM; last figure of the line = mean of the 4 before it; read-out: Alpha3Beta2, PDSP raw data, mean
T7 construct: purchased NIMH Psychoactive Drug Screening Program (PDSP)
Method: as §3, §1, §2

Alpha7 = test: PDSP primary binding Alpha7; details: primary binding, 10,000 nM; last figure of the line = mean of the 4 before it
Method: as §3, §1, §2

[2] = at 10,000 nM, N = 5, [3H]-U69593 0.83 nM, read-out: Primary Binding %KOR
[3] = primary binding, 10,000 nM, last figure of the line = mean of the 4 before it, read-out: KOR, PDSP raw data, mean

T3 sequence (P08588 whole entry): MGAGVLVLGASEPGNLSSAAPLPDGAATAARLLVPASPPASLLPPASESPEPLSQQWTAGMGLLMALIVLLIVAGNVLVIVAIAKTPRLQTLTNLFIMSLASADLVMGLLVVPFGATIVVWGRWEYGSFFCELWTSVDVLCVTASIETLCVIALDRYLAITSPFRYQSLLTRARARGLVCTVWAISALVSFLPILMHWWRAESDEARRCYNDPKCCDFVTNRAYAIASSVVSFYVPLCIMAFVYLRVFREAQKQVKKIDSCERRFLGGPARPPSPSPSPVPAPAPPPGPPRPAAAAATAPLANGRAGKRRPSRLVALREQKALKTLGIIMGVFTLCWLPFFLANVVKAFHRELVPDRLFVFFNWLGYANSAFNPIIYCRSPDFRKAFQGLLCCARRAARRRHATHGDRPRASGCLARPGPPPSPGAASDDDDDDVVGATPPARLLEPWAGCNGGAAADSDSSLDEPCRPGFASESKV
T4 sequence (P21918 whole entry): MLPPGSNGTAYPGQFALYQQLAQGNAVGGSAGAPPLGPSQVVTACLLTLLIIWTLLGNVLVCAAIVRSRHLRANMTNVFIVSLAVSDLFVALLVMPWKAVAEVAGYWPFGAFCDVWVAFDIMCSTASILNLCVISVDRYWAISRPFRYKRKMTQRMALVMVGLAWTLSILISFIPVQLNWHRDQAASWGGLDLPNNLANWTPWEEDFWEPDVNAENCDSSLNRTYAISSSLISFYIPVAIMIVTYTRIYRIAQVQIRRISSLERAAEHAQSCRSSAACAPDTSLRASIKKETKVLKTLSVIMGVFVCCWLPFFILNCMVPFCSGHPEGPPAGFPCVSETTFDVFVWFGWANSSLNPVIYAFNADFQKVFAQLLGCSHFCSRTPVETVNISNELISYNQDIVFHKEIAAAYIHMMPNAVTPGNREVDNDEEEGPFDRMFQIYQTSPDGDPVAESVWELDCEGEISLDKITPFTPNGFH
Chain of kappa opioid receptors (KOR) (P41145 whole entry): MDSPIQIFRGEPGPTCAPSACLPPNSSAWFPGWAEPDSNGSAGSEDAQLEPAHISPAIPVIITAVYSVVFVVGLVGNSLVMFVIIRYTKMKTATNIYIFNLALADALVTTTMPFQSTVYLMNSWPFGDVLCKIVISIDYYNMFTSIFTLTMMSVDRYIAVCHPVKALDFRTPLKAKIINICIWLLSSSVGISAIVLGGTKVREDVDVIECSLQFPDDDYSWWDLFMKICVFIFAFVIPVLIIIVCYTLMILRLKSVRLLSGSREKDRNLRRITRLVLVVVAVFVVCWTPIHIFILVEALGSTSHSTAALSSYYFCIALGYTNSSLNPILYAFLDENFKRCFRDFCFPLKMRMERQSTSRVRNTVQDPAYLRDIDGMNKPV
T5 sequence (P35367 whole entry): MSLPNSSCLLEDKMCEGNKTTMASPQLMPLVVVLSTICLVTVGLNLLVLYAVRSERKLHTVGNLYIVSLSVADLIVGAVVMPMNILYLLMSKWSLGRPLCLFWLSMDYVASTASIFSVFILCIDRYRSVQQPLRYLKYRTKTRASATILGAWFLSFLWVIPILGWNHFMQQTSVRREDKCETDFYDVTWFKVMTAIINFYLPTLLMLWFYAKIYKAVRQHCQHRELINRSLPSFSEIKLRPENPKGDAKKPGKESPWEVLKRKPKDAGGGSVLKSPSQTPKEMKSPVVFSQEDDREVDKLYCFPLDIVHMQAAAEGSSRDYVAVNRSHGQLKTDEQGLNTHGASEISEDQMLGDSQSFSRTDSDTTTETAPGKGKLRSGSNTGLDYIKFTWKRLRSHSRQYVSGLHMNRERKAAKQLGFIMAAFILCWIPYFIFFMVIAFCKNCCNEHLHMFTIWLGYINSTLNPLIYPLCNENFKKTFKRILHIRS
T2 sequence (P50406 whole entry): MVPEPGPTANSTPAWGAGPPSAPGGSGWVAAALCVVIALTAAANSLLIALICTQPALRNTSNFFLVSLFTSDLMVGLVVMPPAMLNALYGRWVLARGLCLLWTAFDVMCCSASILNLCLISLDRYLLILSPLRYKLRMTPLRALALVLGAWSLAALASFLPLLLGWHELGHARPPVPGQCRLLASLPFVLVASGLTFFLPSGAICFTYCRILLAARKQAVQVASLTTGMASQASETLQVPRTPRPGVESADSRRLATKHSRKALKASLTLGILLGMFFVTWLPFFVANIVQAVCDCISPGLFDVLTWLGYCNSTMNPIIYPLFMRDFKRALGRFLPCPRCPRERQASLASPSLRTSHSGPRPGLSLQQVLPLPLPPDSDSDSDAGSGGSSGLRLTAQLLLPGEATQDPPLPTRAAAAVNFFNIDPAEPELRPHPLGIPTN
T7 sequence (P04757 26-499): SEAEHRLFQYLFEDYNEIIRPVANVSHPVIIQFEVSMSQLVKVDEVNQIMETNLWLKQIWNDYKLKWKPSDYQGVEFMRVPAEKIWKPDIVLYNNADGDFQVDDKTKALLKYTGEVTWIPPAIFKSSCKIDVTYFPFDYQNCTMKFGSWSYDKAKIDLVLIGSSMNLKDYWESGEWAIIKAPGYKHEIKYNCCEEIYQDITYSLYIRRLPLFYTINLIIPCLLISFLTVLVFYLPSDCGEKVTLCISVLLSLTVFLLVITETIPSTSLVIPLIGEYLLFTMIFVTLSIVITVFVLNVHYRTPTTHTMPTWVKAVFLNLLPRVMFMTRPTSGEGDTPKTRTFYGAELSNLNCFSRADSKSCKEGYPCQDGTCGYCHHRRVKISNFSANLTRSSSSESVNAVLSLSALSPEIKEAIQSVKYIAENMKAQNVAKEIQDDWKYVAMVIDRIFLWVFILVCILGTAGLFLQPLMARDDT
T7 sequence (P12390 25-500): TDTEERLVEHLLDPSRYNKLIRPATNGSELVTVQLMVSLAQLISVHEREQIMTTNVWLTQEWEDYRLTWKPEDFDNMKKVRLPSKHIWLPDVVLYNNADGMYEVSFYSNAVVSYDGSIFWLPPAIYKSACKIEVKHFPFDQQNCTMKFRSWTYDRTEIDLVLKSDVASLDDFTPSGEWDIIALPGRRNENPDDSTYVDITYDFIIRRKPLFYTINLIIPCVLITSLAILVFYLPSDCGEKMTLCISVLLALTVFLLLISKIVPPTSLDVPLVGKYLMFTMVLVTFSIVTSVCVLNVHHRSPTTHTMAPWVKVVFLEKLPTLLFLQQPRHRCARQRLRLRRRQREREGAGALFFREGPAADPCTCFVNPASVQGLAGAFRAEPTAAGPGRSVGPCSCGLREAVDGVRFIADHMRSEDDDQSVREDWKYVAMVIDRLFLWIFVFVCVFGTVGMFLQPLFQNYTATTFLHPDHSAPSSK

Structure (SMILES)	inhibition at 10 µM [1, 2] [%]	inhibition at 10 µM [1, 3] [%]	Ki ([1]; secondary screening, N = 2, read-out: KOR (Ki)) [nM]	inhibition at 10 µM (5-HT2C) [%]	inhibition at 10 µM (5-HT6) [%]	inhibition at 10 µM (Beta1) [%]	inhibition at 10 µM (D5) [%]	inhibition at 10 µM (H1) [%]	inhibition at 10 µM (M2) [%]	AMPA, PDSP raw data, mean (AMPA) [%]	Kainate (Rat Brain), PDSP raw data, mean (Kainate (Rat Brain)) [%]	inhibition at 10 µM (Alpha3Beta2) [%]	Alpha7, PDSP raw data, mean (Alpha7) [%]	Ki [1] [nM]
C[C@H]1N=C(c2ccccc2F)c2cc(-c3ccccc3)ccc2-n2cnc(C(=O)N(C)C)c21 [Compound 5, (R)-6-(2′-Fluorophenyl)-N,N,4-trimethyl-8-phenyl-4H-benzo[f]imidazo[1,5-a][1,4]diazepine-3-carboxamide]	53.6 ± 7.24	53.6	2140 ± 311	18	24.6	-15.8	1.22	-10.4	15.4	7.77	3.43	2.14	-18.33	
C#Cc1ccc2c(c1)C(c1ccccn1)=N[C@@H](C)c1c(C(=O)N(C)C)ncn1-2 [Compound 31, (S)-8-Ethynyl-N,N,4-trimethyl-6-(pyridin-2′-yl)-4H-benzo[f]imidazo[1,5-a][1,4]diazepine-3-carboxamide]	-3.79 ± 4.99	-3.79		-12.3	18.1	-16.2	-11.1	-7.38	3.03	-10.56	23.99	3.57	-3.44	
C#Cc1ccc2c(c1)C(c1ccccn1)=N[C@@H](C)c1c(C(=O)NC)ncn1-2 [Compound 23, (S)-8-Ethynyl-N,4-dimethyl-6-(pyridin-2′-yl)-4H-benzo[f]imidazo[1,5-a][1,4]diazepine-3-carboxamide]	26.9 ± 6.21	26.9		-10.1	18.1	-10.8	-16.1	-2.54	-6.16	-17.23	37.08	7.13	-5.28	
C#Cc1ccc2c(c1)C(c1ccccc1Cl)=N[C@H](C)c1c(C(=O)N(C)CC)ncn1-2 [Compound 29]	69.1 ± 29.1	69.1		-10.7	14.9	8.7	-17.2	-1.99	3.03	-3.32	16.79	3.52	-2.05	392 ± 78.8
CCc1noc(-c2ncn3c2CN=C(c2ccccc2F)c2cc(C4CC4)ccc2-3)n1 [Compound 44, 5-(8-Cyclopropyl-6-(2′-fluorophenyl)-4H-benzo[f]imidazo[1,5-a][1,4]diazepin-3-yl)-3-ethyl-1,2,4-oxadiazole]	96.3 ± 2.29	96.3		24.7	27.6	-5.19	9.06	16.3	-13.6	-9.33	42.42	-0.02	-24.22	207 ± 33.1
CCc1noc(-c2ncn3c2[C@@H](C)N=C(c2ccccc2F)c2cc(-c4ccccc4)ccc2-3)n1 [Compound 35, (R)-3-Ethyl-5-(6-(2′-fluorophenyl)-4-methyl-8-phenyl-4H-benzo[f]imidazo[1,5-a][1,4]diazepin-3-yl)-1,2,4-oxadiazole]	38 ± 1.73	38		19.7	10.3	0.99	23.6	10.5	-7.95	-5.68	33.32	5.43	-23.18	
C[C@H]1N=C(c2ccccc2F)c2cc(Cl)ccc2-n2cnc(-c3nc(C4CC4)no3)c21 [Compound 38, (R)-5-(8-Chloro-6-(2′-fluorophenyl)-4-methyl-4H-benzo[f]imidazo[1,5-a][1,4]diazepin-3-yl)-3-cyclopropyl-1,2,4-oxadiazole]	98.9 ± 1.6	98.9		7.18	-6.37	9.95	14.1	58.4	-9.65	21.42	36.46	6.96	11.55	82.2 ± 2.43
